Test results reported in patent EP2933270B1, “ARTEANNUIN CYCLODEXTRIN CONJUGATE AND PREPARING METHOD THEREOF” (KPC Pharmaceuticals, Inc., priority 2012, dated 2014).
Where two headings read alike, the source gives them in different places.

Key:
Solubility in water = assay: Solubility in water
From the text: The arteannuin-cyclodextrin conjugate according to the present invention uses a cyclodextrin as a carrier, and a molecule of an arteannuin compound is connected, via an amide bond formed between the carboxyl group thereof and any amine group of the cyclodextrin modified by an amine group, to the cyclodextrin.

Hep2 hepatoma = details: mice, intraperitoneal injection, 60 mg/kg; cited from earlier work
Lovo = assay: MTT assay, growth inhibition of human rectal cancer cells; type: cell-based; details: 48 h
Method: (§1) For example, 180 µl suspension of human rectal cancer cells HCT116, Lovo, SW480 and HT29 at a concentration of 4×10^4/mL is added to 96-well culture plate, and pre-cultured under the conditions of 5% CO2, 37°C and saturated moisture for 24h. After 150 µl medium is replaced, 20 µl medium containing molecular assembly at different concentrations is added, and cultured for another 48 h, with the medium free of a sample as a negative control, and a medium containing camptothecin, oxaliplatin and fluorouracil at different concentrations as a positive control. MTT assay is used to determine the OD value, and to calculate the growth inhibition rate. The inhibition of compounds at high, medium and low concentrations on the tumor cell proliferation is observed. All the experiments above are performed in triplet. Results for in vitro experiment of the arteannuin-cyclodextrin conjugate with respect to human rectum and caecum cancer cells are shown in table 1. Table 1 IC50 value (µM) for certain arteannuin compounds in several rectum cancer cells

HT29 = assay: as above; type: cell-based; details: 48 h
Method: as §1

SW480 = assay: as above; type: cell-based; details: 48 h
Method: as §1

HCT116 = assay: as above; type: cell-based
Method: as §1

hepatocarcinoma H22 = details: mice, 300 mg/kg by gavage; cited from earlier work
[1] = Homo sapiens, HT-29, HT 90 [sic] cells (method: HT29)
[2] = HT 90 [sic] cells (method: HT29)
[3] = isolated product of the example

For C[C@@H]1CC[C@H]2[C@@H](C)C(=O)O[C@@H]3O[C@@]4(C)CC[C@@H]1[C@]32OO4 [arteannuin], the “solubility in water” value (Solubility in water; in water) was “almost insoluble in water”.

For C[C@H]1[C@H](OC(=O)CCC(=O)O)O[C@@H]2O[C@@]3(C)CC[C@H]4[C@H](C)CC[C@@H]1[C@@]24OO3 [artesunate], the anti-tumor rate (Hep2 hepatoma) is given as 80.4%, the “solubility in water” value (Solubility in water; in water) is given as “almost insoluble in water” and the IC50 (Lovo; Homo sapiens) is given as 2.6 µM. The IC50 (HT29; [1]) was 9.11 µM, the IC50 (SW480; Homo sapiens) was 1.82 µM and the IC50 (HCT116; Homo sapiens, HCT-116, 48 h) was 1.04 µM. The anti-tumor rate (hepatocarcinoma H22) was at least 40%.

In the case of C[C@H]1[C@@H](O)O[C@@H]2O[C@@]3(C)CC[C@H]4[C@H](C)CC[C@@H]1[C@@]24OO3 [dihydroarteannuin], the “solubility in water” value (Solubility in water) is reported as “almost insoluble in water”, the IC50 (Lovo; Homo sapiens) is reported as 2.11 µM and the IC50 (HT29; [1]) is reported as 21.1 µM. The IC50 (SW480; Homo sapiens) was 14.1 µM and the IC50 (HCT116; Homo sapiens, HCT-116, 48 h) was 1.76 µM.

O=c1[nH]cc(F)c(=O)[nH]1 [fluorouracil] gave an IC50 (Lovo; Homo sapiens) of 23 µM, an IC50 (HT29; [1]) of 38.5 µM and an IC50 (SW480; Homo sapiens) of 30.8 µM. For the same compound, the IC50 (HCT116; Homo sapiens, HCT-116, 48 h) was 5.4 µM.

In the case of O=C1[O][Pt]2([NH][C@@H]3CCCC[C@H]3[NH]2)[O]C1=O [oxaliplatin], the IC50 (Lovo) is reported as 1.51 µM, the IC50 (HT29; [2]) is reported as 9.7 µM and the IC50 (SW480) is reported as 30.1 µM. The IC50 (HCT116; 48 h) was 0.76 µM.

In the case of “conjugate of mono-[6-(ethanediamine)-6-deoxy]-β-cyclodextrin and the compound in which C-12 of the arteannuin was connected with a phenoxy group [Example 5]”, the solubility (Solubility in water) is reported as 68 mg/mL.

“conjugate of mono-[6-(monoamine)-6-deoxy]-β-cyclodextrin and the compound in which C-12 of the arteannuin was connected with a phenoxy group [Example 6]” showed a solubility (Solubility in water; [3]) of 54 mg/mL.

Work on “mono-[6-(ethanediamine)-6-deoxy]-β-cyclodextrin-artesunate conjugate [Example 1]” yielded a solubility (Solubility in water; [3]) of 68 mg/mL, an IC50 (Lovo) of 1.62 µM and an IC50 (HT29; [2]) of 5.18 µM. For the same compound, the IC50 (SW480) was 3.89 µM and the IC50 (HCT116; 48 h) was 0.58 µM.
